Results from PubChem BioAssay (NCI).
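Cells were grown in 96-well plates and exposed to each compound for 48 hours at five concentrations; endpoints were interpolated linearly between bracketing concentrations, or set to the highest concentration if not reached. GI50: concentration for 50% inhibition of growth. The concentration for full growth arrest is given as TGI.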

Key:
Test in all cases: growth of human tumour cells (NCI), 48 h
[1] = test system: OVCAR-5 ovarian
[2] = test system: HCC-2998 colon
[3] = test system: K-562 leukemia
[4] = test system: SF-539 CNS
[5] = test system: SW-620 colon
[6] = test system: KM12 colon
[7] = test system: SK-MEL-28 melanoma
[8] = test system: RPMI-8226 leukemia
[9] = test system: NCI-H522 lung
[10] = test system: PC-3 prostate

SMILES	TGI [1] [µM]	TGI [2] [µM]	TGI [3] [µM]	TGI [4] [µM]	TGI [5] [µM]	TGI [6] [µM]	TGI [7] [µM]	TGI [8] [µM]	TGI [9] [µM]	GI50 [1] [nM]	GI50 [2] [nM]	GI50 [3] [nM]	GI50 [4] [nM]	GI50 [5] [nM]	GI50 [6] [nM]	GI50 [7] [nM]	GI50 [9] [nM]	GI50 [10] [nM]	TGI [10] [µM]	GI50 [8] [nM]
Cc1cc(Cl)ccc1NC(=O)CC1SC(N)=NC1=O (stereo not drawn)	> 100	> 100	> 100	> 100	> 100	> 100	> 100	> 100	> 100											
N#CCc1ccc(/C(C#N)=C2/OC(=N)C(c3ccc(CC#N)cc3)C2=O)cc1 (stereo not drawn)	> 100		> 100	> 100	> 100		> 100	> 100	> 100											
O=C1CCCC(=O)C1=C(O)CCCCCCCCCCc1ccccc1	74.6	> 100	> 100	> 100	> 100	> 100	> 100	> 100	82.2											
COC(=O)c1c(C)cc2c(c1O)C1(O)C(=O)c3cc4c(c(O)c3C(=O)C1(OC)C(O)C2)C(=O)C=C(NC1OC(C)C(OC)C(O)C1OC)C4=O (stereo not drawn)	0.401	0.28	0.178	0.2	0.164	0.562		0.303	0.257											
Cc1ccc(-c2nc3c(C(=O)NCCN(C)C)cccc3[nH]2)cc1	45.2	29.4	50.5	23	28.6	> 100	32.4													
Cc1ccc(NC(=O)COC(=O)c2cccc3c(=O)c4ccccc4[nH]c23)cc1		> 100	> 100	> 100	> 100	> 100	> 100	> 100	59.9											
S=P1(c2ccccc2)Nc2ccc(Cl)cc2N1 (stereo not drawn)	> 100	> 100	> 100	> 100	> 100	> 100	> 100	> 100	> 100											
Cc1ccc(NC(=O)C(=O)C2NC(=S)NC2=O)c([N+](=O)[O-])c1 (stereo not drawn)	> 100	> 100	> 100	> 100	> 100	> 100	> 100	> 100	> 100											
O=C1Cc2ccccc2N1c1c(Cl)cccc1Cl	> 100	> 100	> 100	> 100	> 100	> 100	> 100	62.7	> 100											
CC1C=CC(C)C2(O)C(=O)NC(O)C12 (stereo not drawn)		> 100	> 100	> 100	> 100	> 100	> 100	> 100	> 100											
N#CCCN(CCC#N)c1ccc(/C=N\c2nc(-c3ccccc3)cs2)cc1	> 100		> 100	> 100	> 100		> 100	> 100	> 100											
CCC[CH2][Sn]1([CH2]CCC)[O]C(=O)c2cccc(OC)c2[O]1	2.9	2.15	1.16	1.42	0.366	2.32	0.747		0.179	1550	990	71.9	387	148	1100	234	38.6			
CCCCCCCCCCCCSC(=NC)NC	4.16	3.03	6.35	3.14			3.22	4.77		1830	1600	1950	1670			1720		1900	4.94	2070
CCN(CC)CCC(=O)N1CCc2c([nH]c3ccccc23)C1c1cccnc1 (stereo not drawn)	> 100	> 100	> 100	> 100	> 100	> 100	> 100	> 100	> 100											
C[N+](C)(C)Cc1c(CC#N)[nH]c2ccccc12	> 100	> 100	> 100	> 100	> 100	> 100	> 100	> 100	> 100											
COc1ccc(CC2NCCc3cc(OC)c(OC)cc32)cc1 (stereo not drawn)	> 100	> 100		> 100	> 100	> 100	> 100	> 100	> 100											
Cn1c(=O)c2[nH]c(C3CC(=O)CC(c4nc5c([nH]4)c(=O)n(C)c(=O)n5C)N3)nc2n(C)c1=O (stereo not drawn)	> 100		> 100	> 100	> 100	> 100	> 100	> 100	> 100										> 100	
CN1C(=O)c2cc([N+](=O)[O-])ccc2[C@H]2C(=O)c3cc4c(cc3[C@H]21)OCO4	0.926		> 100	0.973	> 100		> 32.4		9.42	299		199	41	48.1	337	250	< 17.9	521	63	43.5
CCOC(=O)N[C@H]1CCc2cc(O)c(OC)c(OC)c2-c2ccc(SC)c(=O)cc21	> 100	> 100	> 100	0.044	> 100	0.413	> 100	> 72.6	0.046											
Cn1cnc([N+](=O)[O-])c1Sc1nc2cccnc2s1	> 100	30.9		42	26.6	> 100	30.8	60.4												
O=C1c2cccc3cccc(c23)C(=O)N1CCCCN1CCN(CCCCOc2ccc(-c3nc4ccc(N5CCOCC5)cc4[nH]3)cc2)CC1	> 100	> 100	> 100	> 100	> 100	> 100	> 100	> 100	> 100	> 100000	> 100000	4350	> 100000	> 100000	> 100000	66000	> 100000			> 100000
CC1CC(=O)C(CC(=O)O)C1C(C(=O)C(=O)Nc1c(C#N)cccc1[N+](=O)[O-])[N+](=O)[O-] (stereo not drawn)	> 100	> 100	> 100	> 100	> 100	> 100	> 100	> 100												
